The source of these data is ChEMBL document CHEMBL1148759, “Isolation, characterization, and biological evaluation of syn and anti diastereomers of [(99m)Tc]technetium depreotide: a somatostatin receptor binding tumor imaging agent” (J Med Chem, 2007).

In general, IC50 refers to the point on the concentration scale where inhibition reaches its midpoint. Low readings indicate greater potency, high ones weaker potency.

Molecules are shown by their SMILES. Where a SMILES comes first, the peptide text is derived from it. [ ]: non-standard residue; d: D form. The star is where a group is joined. X1 = NCCCC[C@H](NC(=O)[C@H](CS)NC(=O)[C@H](CCCCN)NC(=O)[C@@H](N)CNC(=O)C*)C(N)=O; NMeF = CN[C@@H](Cc1ccccc1)C(=O)O; hCys = N[C@@H](CCS)C(=O)O

The nature of this assay: Displacement of [125I]somatostatin from SSTR in rat AR42J cells. The format is cell-based. Particulars: ar-42j. (In general: In a radioligand displacement assay an active substance lowers the binding of a labelled ligand.)

As to `CC(C)[C@@H]1NC(=O)[C@H](CCCCN)NC(=O)[C@@H](Cc2c[nH]c3ccccc23)NC(=O)[C@H](Cc2ccc(O)cc2)NC(=O)[C@H](Cc2ccccc2)N(C)C(=O)[C@H](CCSCC(=O)NC[C@H](N)C(=O)N[C@@H](CCCCN)C(=O)N[C@@H](CS)C(=O)N[C@@H](CCCCN)C(N)=O)NC1=O` [DEPREOTIDE] (cyclo([hCys](X1)[NMeF]Y[dW]KV)), the IC50 came to 7.4 nM. In other words, the single-digit nanomolar range.
